Laboratory results taken from patent publication US20150038527A1, “FUROPYRIDINE DERIVATIVES” (Merck Patent GmbH, priority 2012, published 2015).

Experiments:
murine model of RA = conditions: cited from earlier work
RA = RA Phase II studies in humans; cited from earlier work
SYK = molecular target: T1, SYK (Homo sapiens, UniProt P43405); test: SYK Flash Plate Assay (enzyme assay); format: biochemical
T1 construct: 2.5 nM SYK, 400 nM Biotin-Aha-Aha-KEDPDYEWPSAKK and 10 μM ATP

Compound	IC50 (SYK) [nM]	also measured
COc1cc(Nc2ncc(F)c(Nc3ccc4c(n3)NC(=O)C(C)(C)O4)n2)cc(OC)c1OC [Compound R406]		bone erosion (murine model of RA): significantly reduced; clinical scores (murine model of RA): significant improvement of clinical scores; serum cytokine concentrations (murine model of RA): significantly reduced serum cytokine concentrations; efficacy (ACR scores) (RA): efficacy (ACR scores improvement); tolerability (RA): good tolerability
COc1cc(-c2cc3nccc(-c4cccc(C(=O)N[C@@H]5CCCC[C@H]5O)c4)c3o2)cc(OC)c1OC [Compound A19, N-((1R,2R)-2-hydroxy-cyclohexyl)-3-[2-(3,4,5-trimethoxy-phenyl)-furo[3,2-b]pyridin-7-yl]-benzamide]	3000 to 50000	
COc1cccc(OC)c1-c1ccnc2cc(-c3cc(C(N)=O)ccc3N)oc12 [Compound A107, 4-amino-3-[7-(2,6-dimethoxy-phenyl)-furo[3,2-b]pyridin-2-yl]-benzamide]	100 to 300	
COc1cc(-c2cc3nccc(-c4cccc(C(=O)N[C@@H]5CCC[C@@H]5O)c4)c3o2)cc(OC)c1OC [Compound A22, N-((1R,2S)-2-hydroxy-cyclopentyl)-3-[2-(3,4,5-trimethoxy-phenyl)-furo[3,2-b]pyridin-7-yl]-benzamide]	3000 to 50000	
COc1cc(-c2cc3nccc(-c4cc(F)cc(C(=O)NCCN)c4)c3o2)cc(OC)c1OC [Compound A55, N-(2-amino-ethyl)-3-fluoro-5-[2-(3,4,5-trimethoxy-phenyl)-furo[3,2-b]pyridin-7-yl]-benzamide]	100 to 300	
COc1cc(-c2cc3nccc(-c4cc(F)cc(C(=O)N[C@@H]5CCCC[C@@H]5N)c4)c3o2)cc(OC)c1OC [Compound A35, N-((1R,2S)-2-amino-cyclohexyl)-3-fluoro-5-[2-(3,4,5-trimethoxy-phenyl)furo[3,2-b]pyridin-7-yl]-benzamide]	300 to 3000	
COc1cc(-c2cc3nccc(-c4cc[nH]c4)c3o2)cc(OC)c1OC [Compound A83, 7-(1H-pyrrol-3-yl)-2-(3,4,5-trimethoxy-phenyl)-furo[3,2-b]pyridine]	< 100	
COc1cc(-c2cc3nccc(-c4cccc(C(=O)N[C@H]5C[C@H](N)C5)c4)c3o2)cc(OC)c1OC [Compound A24, N-(3-amino-cyclobutyl)-3-[2-(3,4,5-trimethoxy-phenyl)-furo[3,2-b]pyridin-7-yl]-benzamide]	300 to 3000	
Cc1cc(OCCN)ccc1-c1cc2nccc(-c3cccc(C(=O)N[C@@H]4CCCC[C@@H]4N)c3)c2o1 [Compound A52, N-((1R,2S)-2-amino-cyclohexyl)-3-{2-[4-(2-amino-ethoxy)-2-methyl-phenyl]-furo[3,2-b]pyridin-7-yl}-benzamide]	300 to 3000	
COc1cc(-c2cc3nccc(-c4cccc(C(=O)NCC(O)CO)c4)c3o2)cc(OC)c1OC (stereo not shown) [Compound A20, N-(2,3-dihydroxy-propyl)-3-[2-(3,4,5-trimethoxy-phenyl)-furo[3,2-b]pyridin-7-yl]-benzamide]	3000 to 50000	
COc1ccc(-c2nnn[nH]2)cc1-c1cc2nccc(-c3c(OC)cccc3OC)c2o1 [Compound A84, 7-(2,6-dimethoxy-phenyl)-2-[2-methoxy-5-(1H-tetrazol-5-yl)-phenyl]-furo[3,2-b]pyridine]	< 100	
COc1ccc(C(N)=O)cc1-c1cc2nccc(-c3cc(C(N)=O)ccc3OC)c2o1 [Compound A31, 3-[2-(5-carbamoyl-2-methoxy-phenyl)furo[3,2-b]pyridin-7-yl]-4-methoxybenzamide]	300 to 3000	
